Reference: patent publication US12344614B2, “Benzodiazepine derivatives as GABA a GAMMA1 PAM” (Hoffmann-La Roche Inc., priority 2021, dated 2025)
Where two headings read alike, the source gives them in different places.

Experiments:
h-GABA-A α2β2γ1 receptor = h-GABA-A α2β2γ1 receptor (Homo sapiens (Human), UniProt P47869+Q8N1C3); experiment: Two-electrode voltage clamp electrophysiology in Xenopus oocytes expressing GABAA receptors; type: cell-based; details: for potentiation of the GABA-induced current: α2β2γ1 GABAA receptor subtype expressing oocytes, GABA EC20, reference PAMs
Experimental: Xenopus laevis oocytes at maturation stages V-VI were used for the expression of cloned mRNA encoding GABAA receptor subunits. Oocytes ready for RNA micro-injection were bought from Ecocyte, Castrop-Rauxel, Germany and stored in modified Barth's medium (composition in mM: NaCl 88, KCl 1, NaHCO3 2.4, HEPES 10, MgSO4 0.82, CaNO3 0.33, CaCl2 0.33, pH=7.5) at 20° C. until the experiment.
Oocytes were plated in 96-well plates for microinjection using the Roboinject automated instrument (MultiChannelSystems, Reutlingen, Germany). Approximately 50 nL of an aqueous solution containing the RNA transcripts for the subunits of the desired GABAA receptor subtype was injected into each oocyte. […] Oocytes were kept in modified Barth's medium (composition in mM: NaCl 88, KCl 1, NaHCO3 4, HEPES 10, MgSO4 0.82, CaNO3 0.33, CaCl, 0.33, pH=7.5) at 20° C. until the experiment.
Electrophysiological experiments were performed using the Roboocyte instrument (MultiChannelSystems, Reutlingen, Germany) on days 3 to 5 after the micro-injection of mRNA. During the experiment the oocytes were constantly superfused by a solution containing (in mM) NaCl 90, KCl 1, HEPES 5, MgCl2 1, CaCl2 1 (pH 7.4). Oocytes were impaled by two glass microelectrodes (resistance: 0.5-0.8 MΩ) which were filled with a solution containing KCl 1M+K-acetate 1.5 M and voltage-clamped to −80 mV. The recordings were performed at room temperature using the Roboocyte two-electrode voltage clamp system (Multichannelsystem). After an initial equilibration period of 1.5 min GABA was added for 1.5 min at a concentration evoking approximately 20% of a maximal current response (EC2O). After another rest interval of 2.5 min GABA was again added evoking a response of similar amplitude and shape. […] Current traces were recorded at a digitization rate of 10 Hz during and shortly before and after the GABA application.
Each compound and concentration was tested on at least 3 oocytes. Different oocytes were used for different compound concentrations.
For the analysis, the digitized current traces of the first and second GABA response were superimposed and, if necessary, rescaled to equal maximal amplitudes. The ratio between the two responses during the time interval of test compound application was calculated point by point. The extremum of the resulting “ratio trace” was taken as the efficacy (“Fold increase”) of the compound expressed as “% modulation of GABA EC20” (100*(Fold increase−1)).

[1] = biological target: human GABAA α5β2γ1 receptor (Homo sapiens (Human), UniProt P31644+Q8N1C3); experiment: Radioligand binding assay, competition for [3H]RO7239181, membranes from HEK293F cells
Experimental: The affinity of compounds at GABAA γ1 subunit-containing receptors was measured by competition for [^3H]RO7239181 (67.3 Ci/mmol; Roche) binding to membranes from HEK293F cells (ThermoFisher R79007) expressing human (transiently transfected) receptors of composition α5β2γ1, α2β2γ1, α1β2γ1. For better protein expression of the α2 subunit-containing receptors, the 28 amino acid long signal peptide (Met1 to Ala28) of the human GABAA α2 subunit was substituted by the 31 amino acid long signal peptide (Met1 to Ser31) of human GABAA α5 subunit.
(§1) Harvested pellets from HEK293F cells expressing the different GABAA receptor subtypes were resuspended in Mannitol Buffer pH 7.2-7.4 (Mannitol 0.29M, Triethylamine 10 mM, Acetic acid 10 mM, EDTA 1 mM plus protease inhibitors (20 tablets Complete, Roche Diagnostics Cat. No. 05 056 489 001 per liter)), washed two times and then resuspended at 1:10 to 1:15 dilution in the same buffer. Cell disruption was performed by stirring the suspension in a Parr vessel #4637 at 435 psi for 15 minutes, and then the suspensions were centrifuged at 1000×g for 15 minutes at 4° C. (Beckman Avanti J-HC; rotor JS-4.2). The supernatant (S1) was transferred in a 21 Schott flask and the pellet (P1) was resuspended with Mannitol Buffer up to 175 ml. The resuspended pellet was transferred into a 250 ml Corning centrifugal beaker and centrifuged at 1500×g for 10 minutes at 4° C. (Beckman Avanti J-HC; rotor JS-4.2). The supernatant (S1) was then transferred in the 21 Schott flask and the pellet was discarded. The supernatants (S1) were centrifuged in 500 ml Beckman polypropylene centrifugal beaker at 15′000×g for 30 minutes at 4° C. (Beckman Avanti J-20 XP; rotor JLA-10.500). The pellet (P2) was resuspended with Mannitol Buffer 1:1 and frozen at −80° C. The supernatant (S2) was centrifuged in 100 ml Beckman polypropylene centrifugal tubes at 48000×g for 50 minutes at 4° C. (Beckman Avanti J-20 XP; rotor JA-18). The supernatant (S3) was discarded and the pellet (P3) was resuspended with 1:1 Mannitol Buffer. The P2 and P3 protein concentration was determined with the BIORAD Standard assay method with bovine serum albumin as standard and measured on the NANO-Drop 1000. The membrane suspension was aliquots (500 μl per tube) and stored at −80° C. until required.
(§2) Membrane homogenates were resuspended and polytronised (Polytron PT1200E Kinematica AG) in Potassium Phosphate 10 mM, KCl 100 mM binding buffer at pH 7.4 to a final assay concentration determined with a previous experiment.
Radioligand binding assays were carried out in a volume of 200 μL (96-well plates) which contained 100 μL of cell membranes, [^3H]RO7239181 at a concentration of 1.5 nM (α5β2γ1) or 20-30 nM (α1β2γ1, α2β2γ1) and the test compound in the range of [0.3-10000]×10^−9 M. Nonspecific binding was defined by 10×10^−6 (α5β2γ1) and 30×10^−6 M RO7239181 and typically represented less than 5% (α5β2γ1) and less than 20% (α1β2γ1, α2β2γ1) of the total binding. Assays were incubated to equilibrium for 1 hour at 4° C. and then, membranes were filtered onto unifilter (96-well white microplate with bonded GF/C filters preincubated 20-50 minutes in 0.3% Polyethylenimine) with a Filtermate 196 harvester (Packard BioScience) and washed 4 times with cold Potassium Phosphate 10 mM pH 7.4, KCl 100 mM binding buffer. After anhydrousing, filter-retained radioactivity was detected by liquid scintillation counting. Ki values were calculated using Excel-Fit (Microsoft) and are the means of two determinations.
Representative test results, obtained by the above described assay measuring binding affinity to HEK293 cells expressing human (h) receptors, are shown in the Table 1.

[2] = biological target: human GABAA α2β2γ1 receptor (Homo sapiens (Human), UniProt P47869+Q8N1C3); experiment: as above
Experimental: The affinity of compounds at GABAA γ1 subunit-containing receptors was measured by competition for [^3H]RO7239181 (67.3 Ci/mmol; Roche) binding to membranes from HEK293F cells (ThermoFisher R79007) expressing human (transiently transfected) receptors of composition α5β2γ1, α2β2γ1, α1β2γ1.
as §1, §2
Assays were incubated to equilibrium for 1 hour at 4° C. and then, membranes were filtered onto unifilter (96-well white microplate with bonded GF/C filters preincubated 20-50 minutes in 0.3% Polyethylenimine) with a Filtermate 196 harvester (Packard BioScience) and washed 4 times with cold Potassium Phosphate 10 mM pH 7.4, KCl 100 mM binding buffer. After anhydrousing, filter-retained radioactivity was detected by liquid scintillation counting. Ki values were calculated using Excel-Fit (Microsoft) and are the means of two determinations.

[3] = biological target: human GABAA α1β3γ2 receptor (Homo sapiens (Human), UniProt P14867+P18507); experiment: Radioligand binding assay, competition for [3H]Flumazenil, HEK293F cells; details: for γ2/γ1 Selectivity Ratio: Ki α1β3γ2 (nM)/Ki α2β2γ1 (nM); for LogSel: Log[Ki α1β3γ2 (nM)/Ki α2β2γ1 (nM)]
Experimental: The affinity of compounds at GABAA γ2 subunit-containing receptors was measured by competition for [^3H]Flumazenil (81.1 Ci/mmol; Roche) binding to HEK293F cells expressing human (transiently transfected) receptors of composition α1β3γ2.
Harvested pellets from HEK293F cells expressing the different GABAA γ2 receptor subtypes were resuspended in Mannitol Buffer pH 7.2-7.4 and processed as described above for the cells expressing the GABAA γ1 subunit-containing receptors.
Assays were incubated to equilibrium for 1 hour at 4° C. and harvested onto GF/C uni-filters (Packard) by filtration using a Packard harvester and washing with ice-cold wash buffer (50 mM Tris; pH 7.5). After anhydrousing, filter-retained radioactivity was detected by liquid scintillation counting. Ki values were calculated using Excel-Fit (Microsoft) and are the means of two determinations.

[4] = read-out: Ki h-GABAA α2β2γ1, [3H]RO7239181 20-30 nM, HEK293F membranes, 1 hour at 4° C., mean of two determinations

SMILES	Ki [2] [nM]	Ki [3] [nM]	γ2/γ1 Selectivity Ratio [3]	LogSel [3]	Ki [1] [nM]	Ki [2, 4] [nM]	also measured
C[C@@H]1N=C(c2nc(O)ccc2F)c2c(ccc(C(F)(F)F)c2Cl)-n2nc(C(=O)N3CC(F)C3)nc21 [Example 21, [(4S)-7-chloro-6-(3-fluoro-6-hydroxy-2-pyridyl)-4-methyl-8-(trifluoromethyl)-4H-[1,2,4]triazolo[1,5-a][1,4]benzodiazepin-2-yl]-(3-fluoroazetidin-1-yl)methanone]	11.8						Efficacy (GABA) % (h-GABA-A α2β2γ1 receptor; % modulation of GABA EC20 = 100*(Fold increase−1), compound at 30-fold Ki α2β2γ1): 73%; Ki ([1]; read-out: Ki h-GABAA α5β2γ1, [3H]RO7239181 […], HEK293F membranes, 1 hour at 4° C., mean of two determinations): 5.51 nM; Ki ([3]; read-out: Ki h-GABAA α1β3γ2, [3H]Flumazenil 1 nM, HEK293F membranes, 1 hour at 4° C., mean of two determinations): > 30000 nM
CN1C(=O)CN=C(c2ccccc2F)c2cc([N+](=O)[O-])ccc21 [Flunitrazepam, reference compound]							potentiation of the GABA-induced current (h-GABA-A α2β2γ1 receptor): ~60%
CN1C(=O)CN=C(c2cc(O)ccc2F)c2cc(Cl)ccc21 [RE-B, 7-chloro-5-(2-fluoro-5-hydroxy-phenyl)-1-methyl-3H-1,4-benzodiazepin-2-one, reference compound]	1.9	1.1	0.58	−0.24			
Cc1cn2c(n1)[C@H](C)N=C(c1nc(O)ccc1Cl)c1c-2ccc(C(F)(F)F)c1Cl [Example 27, 5-chloro-6-[(4S)-7-chloro-2,4-dimethyl-8-(trifluoromethyl)-4H-imidazo[1,2-a][1,4]benzodiazepin-6-yl]pyridin-2-ol]	5.22	3550	679.2	2.83	2.8	5.22	
Cc1nnc2n1-c1ccc(Cl)c(Cl)c1C(c1c(F)ccc(O)c1F)=N[C@H]2C [Example 19, 2,4-difluoro-3-[(4S)-7,8-dichloro-1,4-dimethyl-4H-[1,2,4]triazolo[4,3-a][1,4]benzodiazepin-6-yl]phenol]	3.12	33	10.6	1.02	2.12	3.12	
Cc1nnc2n1-c1ccc(Cl)cc1C(c1ccccc1)=NC2 [Alprazolam, reference compound]				−2.3			
CN1C(=O)CN=C(c2cc(O)ccc2Cl)c2cc(Cl)ccc21 [RE-A, 7-chloro-5-(2-chloro-5-hydroxy-phenyl)-1-methyl-3H-1,4-benzodiazepin-2-one, reference compound]				−0.27			Ki ([2]; [3H]RO7239181 20-30 nM, HEK293F membranes, 1 hour at 4° C., mean of two determinations, read-out: Ki h-GABAA α2β2γ1): 2.8 nM
CC(C)NC(=O)c1cn2c(n1)[C@H](C)N=C(c1nc(O)ccc1F)c1c-2ccc(C(F)(F)F)c1Cl [Example 32, (4S)-7-chloro-6-(3-fluoro-6-hydroxy-2-pyridyl)-N-isopropyl-4-methyl-8-(trifluoromethyl)-4H-imidazo[1,2-a][1,4]benzodiazepine-2-carboxamide]	10.8	8600	796.0	2.90	4.7	10.8	
Clc1ccc2c(c1)C(c1ccccc1)=NCc1nncn1-2 [Estazolam, reference compound]				−2.0			
Cc1nnc2n1-c1ccc(Cl)cc1C(c1ccccc1Cl)=NC2 [Triazolam, reference compound]				−1.5			potentiation of the GABA-induced current (h-GABA-A α2β2γ1 receptor): ~60%
C[C@@H]1N=C(c2nc(O)ccc2F)c2c(ccc(C(F)(F)F)c2Cl)-n2cc(C(=O)NC3CC3)nc21 [Example 31, (4S)-7-chloro-N-cyclopropyl-6-(3-fluoro-6-hydroxy-2-pyridyl)-4-methyl-8-(trifluoromethyl)-4H-imidazo[1,2-a][1,4]benzodiazepine-2-carboxamide]	15.6	12500	800.9	2.90	4.4	15.6	
Cc1ncc2n1-c1ccc(Cl)cc1C(c1ccccc1F)=NC2 [Midazolam, reference compound]				−2.2			potentiation of the GABA-induced current (h-GABA-A α2β2γ1 receptor): ~60%
